Activity calls are given as the source filed them.
Columns and labels:
[1] = target: T1, RNA-binding protein pos-1 (Caenorhabditis elegans, UniProt G5EF15); assay: inhibitors of POS-1/mex-3 RNA binding, dose response, biochemical, fluorescence polarization (AID 1964);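 further: purified POS-1 fused to maltose binding protein made in E. coli; potency of compounds blocking POS-1 binding to fluorescent RNA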
T1 sequence (G5EF15 whole entry): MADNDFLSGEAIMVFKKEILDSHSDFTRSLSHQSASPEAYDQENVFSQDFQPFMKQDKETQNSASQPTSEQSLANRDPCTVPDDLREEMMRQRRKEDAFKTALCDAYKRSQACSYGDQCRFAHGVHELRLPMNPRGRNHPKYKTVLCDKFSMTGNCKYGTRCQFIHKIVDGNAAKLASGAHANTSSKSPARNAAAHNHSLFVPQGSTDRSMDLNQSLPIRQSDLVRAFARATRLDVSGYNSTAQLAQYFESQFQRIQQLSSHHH

[2] = target: T2, Zinc finger protein mex-5 (Caenorhabditis elegans, UniProt Q9XUB2); assay: MEX-5/TCR-2 RNA interaction inhibitors, dose response, biochemical, C. elegans, fluorescence polarization (AID 1960)
T2 sequence (Q9XUB2 whole entry): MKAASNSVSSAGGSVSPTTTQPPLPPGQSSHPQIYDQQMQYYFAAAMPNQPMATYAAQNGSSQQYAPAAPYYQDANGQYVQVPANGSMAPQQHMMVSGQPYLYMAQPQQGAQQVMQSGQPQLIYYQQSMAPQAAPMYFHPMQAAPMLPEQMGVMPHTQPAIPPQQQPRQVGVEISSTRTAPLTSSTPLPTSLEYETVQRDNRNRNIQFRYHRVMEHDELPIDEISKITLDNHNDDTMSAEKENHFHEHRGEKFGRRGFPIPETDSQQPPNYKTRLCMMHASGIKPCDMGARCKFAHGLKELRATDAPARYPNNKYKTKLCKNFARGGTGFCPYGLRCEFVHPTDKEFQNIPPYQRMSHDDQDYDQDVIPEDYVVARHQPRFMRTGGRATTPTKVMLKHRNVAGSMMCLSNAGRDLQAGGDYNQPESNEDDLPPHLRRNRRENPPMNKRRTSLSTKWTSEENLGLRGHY

Beta-lactamase [3] = target: Beta-lactamase (Pseudomonas aeruginosa, UniProt Q79MP6);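 further: biochemical dose-response test of metallo-beta-lactamase enzyme inhibition, read out by epi-absorbance; purified recombinant IMP-1 metallo-beta-lactamase with nitrocefin as substrate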
Beta-lactamase [4] = target: Beta-lactamase (Salmonella choleraesuis (strain SC-B67), UniProt Q5J463)
[5] = target: T3, Apoptotic protease-activating factor 1 (Homo sapiens, UniProt O14727); assay type: functional
T3 sequence (O14727 whole entry): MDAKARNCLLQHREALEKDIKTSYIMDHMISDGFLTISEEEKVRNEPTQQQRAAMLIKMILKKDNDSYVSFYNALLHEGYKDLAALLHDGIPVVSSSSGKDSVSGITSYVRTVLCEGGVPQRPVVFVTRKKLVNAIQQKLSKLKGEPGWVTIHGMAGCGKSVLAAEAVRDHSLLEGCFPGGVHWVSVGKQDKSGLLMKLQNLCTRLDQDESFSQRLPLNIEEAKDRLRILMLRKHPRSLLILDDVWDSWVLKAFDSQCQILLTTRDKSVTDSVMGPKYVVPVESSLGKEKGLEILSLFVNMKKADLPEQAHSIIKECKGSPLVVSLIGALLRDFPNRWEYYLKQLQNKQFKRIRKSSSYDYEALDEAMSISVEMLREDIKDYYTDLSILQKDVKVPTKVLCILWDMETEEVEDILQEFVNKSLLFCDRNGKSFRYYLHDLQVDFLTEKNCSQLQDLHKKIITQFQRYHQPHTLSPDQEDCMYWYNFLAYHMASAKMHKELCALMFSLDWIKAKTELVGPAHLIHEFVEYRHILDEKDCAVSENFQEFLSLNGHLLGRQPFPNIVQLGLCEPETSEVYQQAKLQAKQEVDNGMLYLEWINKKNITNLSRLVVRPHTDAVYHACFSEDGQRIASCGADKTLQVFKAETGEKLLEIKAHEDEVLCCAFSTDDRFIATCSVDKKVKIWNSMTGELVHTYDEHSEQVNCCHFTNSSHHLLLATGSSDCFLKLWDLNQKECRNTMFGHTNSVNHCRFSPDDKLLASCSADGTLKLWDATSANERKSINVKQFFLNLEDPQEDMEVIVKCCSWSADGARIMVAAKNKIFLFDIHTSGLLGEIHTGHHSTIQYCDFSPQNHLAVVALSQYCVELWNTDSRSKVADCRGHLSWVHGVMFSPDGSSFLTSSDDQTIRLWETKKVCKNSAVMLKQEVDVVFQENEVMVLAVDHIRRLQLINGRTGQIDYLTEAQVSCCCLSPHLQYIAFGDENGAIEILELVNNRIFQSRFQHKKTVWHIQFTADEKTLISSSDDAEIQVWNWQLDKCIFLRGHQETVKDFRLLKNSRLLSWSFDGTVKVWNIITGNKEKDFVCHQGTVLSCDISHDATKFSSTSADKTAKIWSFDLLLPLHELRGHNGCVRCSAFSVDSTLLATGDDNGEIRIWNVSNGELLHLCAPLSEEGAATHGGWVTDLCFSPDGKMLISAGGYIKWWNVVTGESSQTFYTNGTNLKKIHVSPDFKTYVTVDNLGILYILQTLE

[6] = target: Induced myeloid leukemia cell differentiation protein Mcl-1 (Homo sapiens, UniProt Q07820); assay type: functional
[7] = target: T4, Sentrin-specific protease 8 (Homo sapiens, UniProt Q96LD8); assay type: functional
T4 sequence (Q96LD8 whole entry): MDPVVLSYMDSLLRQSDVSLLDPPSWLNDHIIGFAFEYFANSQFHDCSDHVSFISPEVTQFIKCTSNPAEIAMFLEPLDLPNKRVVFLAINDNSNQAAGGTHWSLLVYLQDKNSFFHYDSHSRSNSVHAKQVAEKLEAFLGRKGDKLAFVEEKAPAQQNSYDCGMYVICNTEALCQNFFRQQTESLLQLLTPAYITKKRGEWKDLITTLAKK

[8] = target: T4, Sentrin-specific protease 8; assay type: functional; remark: listed apart in the source
[9] = target: T5, Low molecular weight phosphotyrosine protein phosphatase (Homo sapiens, UniProt P24666); assay type: functional; details: read-out: IC50_Mean;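 further: Dose-response confirmation assay measuring inhibition of LMPTP enzyme activity by fluorescence intensity read-out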
T5 sequence (P24666 whole entry): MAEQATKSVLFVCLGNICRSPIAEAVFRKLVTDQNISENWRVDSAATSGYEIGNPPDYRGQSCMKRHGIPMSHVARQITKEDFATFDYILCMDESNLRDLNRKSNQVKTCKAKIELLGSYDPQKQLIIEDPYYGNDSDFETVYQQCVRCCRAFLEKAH

[10] = Luminescence Cell-Based Dose Retest to Confirm Inhibitors of Cancer Stem Cells. [Related pubchem assays (depositor defined):AID2717, AID2721]; assay type: functional; details: Homo sapiens
[11] = target: T6, Corticotropin-releasing factor receptor 2/Corticotropin-releasing factor-binding protein (Homo sapiens, UniProt P24387+Q13324); assay: Dose Response confirmation of uHTS hits for small molecule antagonists of the CRF-binding protein and CRF-R2 receptor complex.; assay type: functional; details: read-out: IC50_Mean
T6 sequence (Q13324 whole entry): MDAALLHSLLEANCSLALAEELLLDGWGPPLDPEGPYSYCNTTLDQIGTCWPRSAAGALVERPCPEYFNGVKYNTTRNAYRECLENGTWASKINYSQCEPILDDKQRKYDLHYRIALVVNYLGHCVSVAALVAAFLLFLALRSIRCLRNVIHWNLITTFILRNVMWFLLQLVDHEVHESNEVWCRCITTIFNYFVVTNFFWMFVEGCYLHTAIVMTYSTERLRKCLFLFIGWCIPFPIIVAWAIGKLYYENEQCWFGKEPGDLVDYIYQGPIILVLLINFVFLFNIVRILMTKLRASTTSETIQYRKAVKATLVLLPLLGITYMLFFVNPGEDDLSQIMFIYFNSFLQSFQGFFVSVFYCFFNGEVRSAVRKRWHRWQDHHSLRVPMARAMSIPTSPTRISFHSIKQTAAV
T6 sequence (P24387 whole entry): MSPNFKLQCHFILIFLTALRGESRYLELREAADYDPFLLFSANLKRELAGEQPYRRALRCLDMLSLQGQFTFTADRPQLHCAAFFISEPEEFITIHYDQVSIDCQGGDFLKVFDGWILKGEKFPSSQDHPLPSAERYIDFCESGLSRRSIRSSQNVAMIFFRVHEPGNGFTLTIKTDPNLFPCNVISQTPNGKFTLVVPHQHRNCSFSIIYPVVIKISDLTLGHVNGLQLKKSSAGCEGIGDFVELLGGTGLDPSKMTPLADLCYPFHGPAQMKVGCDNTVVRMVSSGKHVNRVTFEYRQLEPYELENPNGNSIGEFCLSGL

[12] = target: T6, Corticotropin-releasing factor receptor 2/Corticotropin-releasing factor-binding protein; assay: activators of CRF receptor 2 with binding protein – uHTS hits, confirmation (AID 602473); assay type: functional; details: read-out: EC50_Mean
[13] = CRF-BP/CRF-R2 complex antagonists, dose response, cell-based, uHTS hits, 384-well (AID 651639); assay type: functional, Homo sapiens; details: read-out: IC50_Mean
[14] = target: T7, Voltage-gated N-type calcium channel alpha-1B subunit/Amyloid beta A4 precursor protein-binding family A member 1 (Homo sapiens, UniProt Q00975+Q02410); assay type: protein assay
[15] = target: T7, Voltage-gated N-type calcium channel alpha-1B subunit/Amyloid beta A4 precursor protein-binding family A member 1; assay type: protein assay; remark: listed apart in the source
[16] = target: 26S proteasome non-ATPase regulatory subunit 14 (Homo sapiens, UniProt O00487); assay: inhibition of proteasome subunit RPN11 – biochemical, fluorescence polarization, uHTS hits, confirmation (AID 602368); assay type: functional
[17] = target: 72 kDa type IV collagenase (Homo sapiens, UniProt P08253); assay: Dose Response validation of uHTS RPN11 inhibitor hits using a MMP-2 Fluorescence assay.; assay type: functional
Prothrombin = Prothrombin (Bos taurus, UniProt P00735); assay: thrombin inhibition, dose response, biochemical, fluorescence polarization, uHTS hits (AID 602369); assay type: functional
[18] = target: Arf-GAP with SH3 domain, ANK repeat and PH domain-containing protein 1 (Homo sapiens, UniProt Q9ULH1); assay type: functional;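 further: biochemical fluorescence polarization dose–response screen measuring inhibition of ASAP1; ASAP1 GAP domain stimulating GTP hydrolysis by truncated human ARF1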
[19] = target: T8, Carboxy-terminal domain RNA polymerase II polypeptide A small phosphatase 1 (Homo sapiens, UniProt Q9GZU7); assay: inhibitors of CTDSP1, concentration-response testing, biochemical assay, absorbance-based, actives from ultra-high-throughput screening (AID 540297); assay type: functional
T8 sequence (Q9GZU7 whole entry): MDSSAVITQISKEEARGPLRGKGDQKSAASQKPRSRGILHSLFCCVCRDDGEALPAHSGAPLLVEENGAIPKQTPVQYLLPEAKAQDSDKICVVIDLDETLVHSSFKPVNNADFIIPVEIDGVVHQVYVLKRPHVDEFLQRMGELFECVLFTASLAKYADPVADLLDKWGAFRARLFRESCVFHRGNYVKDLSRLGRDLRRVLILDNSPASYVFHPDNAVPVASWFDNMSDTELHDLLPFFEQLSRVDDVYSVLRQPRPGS

[20] = HeLa cell cytotoxicity, dose response, cytotoxicity control for MgcRacGAP inhibitor project (AID 624300); assay type: functional
[21] = target: T9, Rac GTPase-activating protein 1 (Homo sapiens, UniProt Q9H0H5); assay: MgcRacGAP GTPase-activating activity inhibitors, confirmation, biochemical, ADP Hunter fluorescence, primary and confirmatory (AID 624330); assay type: functional
T9 sequence (Q9H0H5 whole entry): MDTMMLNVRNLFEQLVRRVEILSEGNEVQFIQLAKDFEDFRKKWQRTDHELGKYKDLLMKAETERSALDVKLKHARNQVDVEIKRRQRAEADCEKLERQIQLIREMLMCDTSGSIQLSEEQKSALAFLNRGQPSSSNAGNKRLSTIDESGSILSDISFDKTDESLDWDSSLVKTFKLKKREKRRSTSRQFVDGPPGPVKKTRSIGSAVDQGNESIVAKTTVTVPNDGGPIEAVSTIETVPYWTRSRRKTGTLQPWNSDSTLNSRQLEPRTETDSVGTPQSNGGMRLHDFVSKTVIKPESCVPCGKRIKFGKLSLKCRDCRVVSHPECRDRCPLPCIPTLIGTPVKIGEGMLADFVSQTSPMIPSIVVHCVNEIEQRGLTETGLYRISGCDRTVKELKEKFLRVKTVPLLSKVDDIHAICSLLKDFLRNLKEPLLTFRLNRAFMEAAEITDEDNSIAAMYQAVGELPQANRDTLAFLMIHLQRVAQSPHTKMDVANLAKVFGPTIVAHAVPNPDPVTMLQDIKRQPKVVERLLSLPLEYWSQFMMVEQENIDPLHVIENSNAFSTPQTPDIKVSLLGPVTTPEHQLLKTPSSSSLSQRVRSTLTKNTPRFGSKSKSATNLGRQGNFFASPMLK
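Wherever AC50 is given: cells exposed to compound for roughly 70 hours or longer before luminescence read.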

T7 sequence (Q00975 whole entry): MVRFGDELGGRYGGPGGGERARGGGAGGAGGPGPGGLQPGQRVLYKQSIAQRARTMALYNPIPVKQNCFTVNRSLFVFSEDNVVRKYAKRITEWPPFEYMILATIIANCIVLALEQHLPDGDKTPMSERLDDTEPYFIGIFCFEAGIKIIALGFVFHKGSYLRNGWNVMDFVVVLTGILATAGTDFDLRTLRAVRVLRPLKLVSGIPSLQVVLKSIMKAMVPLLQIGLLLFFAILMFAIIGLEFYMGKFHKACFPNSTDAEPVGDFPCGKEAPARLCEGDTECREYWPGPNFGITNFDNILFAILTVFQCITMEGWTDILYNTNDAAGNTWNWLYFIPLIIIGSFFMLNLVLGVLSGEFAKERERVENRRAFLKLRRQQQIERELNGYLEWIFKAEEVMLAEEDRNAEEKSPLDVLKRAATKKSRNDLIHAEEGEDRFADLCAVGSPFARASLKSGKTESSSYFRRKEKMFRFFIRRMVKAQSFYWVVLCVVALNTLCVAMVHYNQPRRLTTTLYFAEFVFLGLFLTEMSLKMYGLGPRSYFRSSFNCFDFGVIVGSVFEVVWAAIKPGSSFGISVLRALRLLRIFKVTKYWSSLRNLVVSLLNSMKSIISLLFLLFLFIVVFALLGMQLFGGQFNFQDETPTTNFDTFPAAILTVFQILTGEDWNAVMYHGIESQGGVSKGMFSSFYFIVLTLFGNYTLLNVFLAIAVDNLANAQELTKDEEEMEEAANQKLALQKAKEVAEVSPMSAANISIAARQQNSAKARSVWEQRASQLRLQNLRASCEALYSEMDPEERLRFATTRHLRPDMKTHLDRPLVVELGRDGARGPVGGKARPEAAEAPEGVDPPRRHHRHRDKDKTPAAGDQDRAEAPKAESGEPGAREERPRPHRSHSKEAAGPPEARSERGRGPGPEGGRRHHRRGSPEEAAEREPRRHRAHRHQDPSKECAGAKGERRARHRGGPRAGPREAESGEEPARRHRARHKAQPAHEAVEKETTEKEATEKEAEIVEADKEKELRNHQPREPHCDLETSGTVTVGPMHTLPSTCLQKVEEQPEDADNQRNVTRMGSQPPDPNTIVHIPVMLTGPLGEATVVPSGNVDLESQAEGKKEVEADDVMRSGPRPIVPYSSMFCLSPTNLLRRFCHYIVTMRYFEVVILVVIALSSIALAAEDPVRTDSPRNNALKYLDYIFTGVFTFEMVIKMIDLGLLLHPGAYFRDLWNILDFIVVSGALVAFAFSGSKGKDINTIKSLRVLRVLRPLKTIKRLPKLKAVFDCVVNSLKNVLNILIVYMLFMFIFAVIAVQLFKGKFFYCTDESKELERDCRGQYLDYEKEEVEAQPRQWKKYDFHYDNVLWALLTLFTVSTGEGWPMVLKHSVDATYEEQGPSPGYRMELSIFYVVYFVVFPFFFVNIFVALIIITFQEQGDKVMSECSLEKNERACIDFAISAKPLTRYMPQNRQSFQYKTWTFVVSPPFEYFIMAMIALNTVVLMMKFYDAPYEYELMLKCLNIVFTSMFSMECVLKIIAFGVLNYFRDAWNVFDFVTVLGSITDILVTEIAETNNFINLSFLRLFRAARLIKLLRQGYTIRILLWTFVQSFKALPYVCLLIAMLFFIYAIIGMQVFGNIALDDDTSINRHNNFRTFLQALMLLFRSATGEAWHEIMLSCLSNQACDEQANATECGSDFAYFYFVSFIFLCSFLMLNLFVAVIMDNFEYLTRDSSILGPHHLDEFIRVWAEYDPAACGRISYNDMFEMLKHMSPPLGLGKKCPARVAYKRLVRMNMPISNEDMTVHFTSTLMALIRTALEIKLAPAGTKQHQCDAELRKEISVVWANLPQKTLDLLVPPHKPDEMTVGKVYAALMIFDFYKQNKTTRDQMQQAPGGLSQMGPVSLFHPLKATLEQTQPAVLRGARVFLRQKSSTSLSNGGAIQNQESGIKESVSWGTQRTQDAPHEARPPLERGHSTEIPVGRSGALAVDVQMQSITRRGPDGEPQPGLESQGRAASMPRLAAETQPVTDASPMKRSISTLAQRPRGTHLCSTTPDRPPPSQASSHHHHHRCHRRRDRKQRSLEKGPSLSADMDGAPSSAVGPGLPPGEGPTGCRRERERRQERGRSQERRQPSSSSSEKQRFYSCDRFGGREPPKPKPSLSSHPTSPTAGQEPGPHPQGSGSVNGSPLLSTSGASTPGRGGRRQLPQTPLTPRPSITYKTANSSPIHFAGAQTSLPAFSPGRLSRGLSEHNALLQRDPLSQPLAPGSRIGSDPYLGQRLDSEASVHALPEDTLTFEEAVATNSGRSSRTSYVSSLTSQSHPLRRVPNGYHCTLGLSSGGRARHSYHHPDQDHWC
T7 sequence (Q02410 whole entry): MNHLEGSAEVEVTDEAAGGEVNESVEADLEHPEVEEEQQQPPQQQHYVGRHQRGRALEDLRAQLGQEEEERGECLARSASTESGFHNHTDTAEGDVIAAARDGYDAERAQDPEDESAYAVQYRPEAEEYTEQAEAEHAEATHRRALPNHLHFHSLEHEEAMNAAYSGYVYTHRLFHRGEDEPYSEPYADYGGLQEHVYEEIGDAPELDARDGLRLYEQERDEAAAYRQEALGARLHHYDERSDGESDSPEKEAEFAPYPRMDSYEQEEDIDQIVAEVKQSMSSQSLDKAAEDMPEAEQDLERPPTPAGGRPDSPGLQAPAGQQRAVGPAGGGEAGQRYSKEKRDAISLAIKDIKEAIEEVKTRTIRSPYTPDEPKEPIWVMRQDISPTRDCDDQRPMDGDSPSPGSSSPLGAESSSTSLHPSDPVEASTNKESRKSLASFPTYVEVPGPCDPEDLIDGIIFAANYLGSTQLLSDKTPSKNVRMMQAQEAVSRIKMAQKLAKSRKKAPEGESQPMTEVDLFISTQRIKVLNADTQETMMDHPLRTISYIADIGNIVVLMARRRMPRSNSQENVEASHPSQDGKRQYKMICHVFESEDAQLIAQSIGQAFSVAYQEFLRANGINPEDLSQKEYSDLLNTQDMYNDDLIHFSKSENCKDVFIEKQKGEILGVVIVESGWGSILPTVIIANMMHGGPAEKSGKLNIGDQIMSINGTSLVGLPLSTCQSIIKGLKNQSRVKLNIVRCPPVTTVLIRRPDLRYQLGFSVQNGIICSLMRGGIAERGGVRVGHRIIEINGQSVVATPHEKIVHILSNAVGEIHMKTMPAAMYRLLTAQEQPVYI
Beta-lactamase (Pseudomonas aeruginosa, UniProt Q79MP6), sequence (Q79MP6 whole entry): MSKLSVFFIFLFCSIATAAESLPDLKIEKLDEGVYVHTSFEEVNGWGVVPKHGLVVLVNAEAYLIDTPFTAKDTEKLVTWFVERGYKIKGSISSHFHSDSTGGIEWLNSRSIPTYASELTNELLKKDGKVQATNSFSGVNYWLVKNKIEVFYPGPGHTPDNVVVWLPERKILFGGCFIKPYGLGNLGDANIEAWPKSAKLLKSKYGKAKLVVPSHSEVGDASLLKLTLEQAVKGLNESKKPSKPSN
Arf-GAP with SH3 domain, ANK repeat and PH domain-containing protein 1, sequence (Q9ULH1 whole entry, the tested form may be a part): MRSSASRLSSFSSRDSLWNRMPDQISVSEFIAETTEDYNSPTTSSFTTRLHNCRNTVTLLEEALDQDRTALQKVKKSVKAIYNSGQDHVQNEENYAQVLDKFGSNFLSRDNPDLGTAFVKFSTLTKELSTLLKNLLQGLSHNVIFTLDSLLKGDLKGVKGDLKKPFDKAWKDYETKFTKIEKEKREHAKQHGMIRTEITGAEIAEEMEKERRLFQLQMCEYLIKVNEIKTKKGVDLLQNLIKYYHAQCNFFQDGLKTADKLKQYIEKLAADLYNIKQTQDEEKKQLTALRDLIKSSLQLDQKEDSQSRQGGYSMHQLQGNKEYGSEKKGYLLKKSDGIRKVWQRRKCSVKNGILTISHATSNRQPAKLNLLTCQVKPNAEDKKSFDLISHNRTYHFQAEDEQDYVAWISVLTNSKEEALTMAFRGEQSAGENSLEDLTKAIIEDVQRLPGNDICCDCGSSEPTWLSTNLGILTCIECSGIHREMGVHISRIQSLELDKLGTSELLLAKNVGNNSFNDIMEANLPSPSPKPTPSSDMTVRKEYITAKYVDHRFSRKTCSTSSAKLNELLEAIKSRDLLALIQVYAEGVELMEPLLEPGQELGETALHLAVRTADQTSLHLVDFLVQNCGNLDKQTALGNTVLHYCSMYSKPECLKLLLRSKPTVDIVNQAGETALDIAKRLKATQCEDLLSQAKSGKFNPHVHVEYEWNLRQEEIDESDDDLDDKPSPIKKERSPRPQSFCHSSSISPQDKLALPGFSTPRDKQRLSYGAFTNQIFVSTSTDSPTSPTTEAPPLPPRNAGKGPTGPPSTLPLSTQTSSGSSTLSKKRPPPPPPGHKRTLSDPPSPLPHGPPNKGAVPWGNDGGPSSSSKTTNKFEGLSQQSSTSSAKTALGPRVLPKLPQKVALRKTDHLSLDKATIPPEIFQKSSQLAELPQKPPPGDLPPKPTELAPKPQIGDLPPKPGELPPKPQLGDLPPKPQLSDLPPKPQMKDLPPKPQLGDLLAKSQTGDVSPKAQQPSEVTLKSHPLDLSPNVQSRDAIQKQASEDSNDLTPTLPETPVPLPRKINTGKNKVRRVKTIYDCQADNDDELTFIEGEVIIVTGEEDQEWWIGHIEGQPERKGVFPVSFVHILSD
Beta-lactamase (Salmonella choleraesuis (strain SC-B67), UniProt Q5J463), sequence (Q5J463 whole entry): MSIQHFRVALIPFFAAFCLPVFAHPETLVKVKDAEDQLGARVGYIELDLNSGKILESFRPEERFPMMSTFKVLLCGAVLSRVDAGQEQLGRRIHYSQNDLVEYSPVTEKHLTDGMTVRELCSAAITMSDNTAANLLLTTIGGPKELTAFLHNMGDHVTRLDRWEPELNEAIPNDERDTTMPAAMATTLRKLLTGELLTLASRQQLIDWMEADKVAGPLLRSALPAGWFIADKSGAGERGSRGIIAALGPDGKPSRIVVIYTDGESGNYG

O=Cc1ccc2cccc3c2c1NC(C(F)(F)F)=N3
EC50 [1]: 27.6 µM (active)
EC50 [2]: 24.8 µM (active)
IC50 (Beta-lactamase [3]): 32.6 µM (inactive)
IC50 (Beta-lactamase [4]): 27.9 µM (inactive)
IC50 [5]: 9.2 µM (active)

Nc1ccc(Cc2ccc(N)c(O)c2)cc1O
IC50 [6]: > 54 µM (active)
IC50 [7]: > 100 µM (inactive)
IC50 [8]: 27 µM (active)
IC50 [9]: 26.7 µM (inactive)

N#Cc1c(O)nc(SCc2cccc(Cl)c2)nc1-c1ccccc1
AC50 [10]: 4.86 µM (active)
IC50 [11]: < 0.368 µM (active)
EC50 [12]: > 53 µM (inactive)
IC50 [13]: > 20 µM (inactive)

O=c1c([N+](=O)[O-])c(NC2CCCCC2)c2ccccc2n1-c1ccccc1
IC50 [11]: 4.33 µM (active)
EC50 [12]: > 53 µM (inactive)
IC50 [13]: > 20 µM (inactive)

O=P(O)(O)c1cc(-c2ccccc2)oc1-c1ccccc1
IC50 (Beta-lactamase [3]): 22.5 µM (inactive)
IC50 (Beta-lactamase [4]): > 59.6 µM (inactive)

COC(=O)c1ccc(NC(=O)c2ccc(NC(=O)c3ccco3)cc2)cc1
IC50 [14]: 5.25 µM (active)
IC50 [15]: > 50 µM (inactive)
IC50 [16]: 23 µM (active)
IC50 [17]: > 100 µM (inactive)
IC50 (Prothrombin): 73 µM (active)
IC50 [18]: 25.8 µM (inactive)

Cc1ccc(C(=O)Nc2cccc(NC(=O)c3ccc(C)c([N+](=O)[O-])c3)n2)cc1[N+](=O)[O-]
IC50 [19]: 4.55 µM (active)
IC50 [18]: 41.9 µM (inactive)

C=CCc1c(C)nc(-c2ccccc2)nc1Nc1ccc(O)cc1
CC50 [20]: 100 µM (active)
IC50 [21]: 38.1 µM (active)

From ChEMBL document CHEMBL1201862, “PubChem BioAssay data set” (2004)
